Values quoted from earlier work as cited in patent US20230301938A1 (priority 2022, published 2023).
Read-outs that look alike come from different tables or passages of the source.

Tests used:
[1] = tested on: lipopolysaccharide-activated macrophages
[2] = tested on: macrophage foam cells
[3] = tested on: myocardial ischemia; conditions: 10 mg/kg intravenously then 10 mg/kg/h
[4] = tested on: ulcerative colitis (UC)
[5] = tested on: Nrf2 (+/+) primary peritoneal macrophages
[6] = tested on: Nrf2 (-/-) primary peritoneal macrophages
[7] = tested on: LPS-challenged macrophages; conditions: pre-incubated 6 h, 0 to 50 µM, then LPS 24 h
[8] = tested on: LPS-induced ARDS
[9] = tested on: lipopolysaccharide-induced inflammatory reactions
[10] = tested on: sepsis; conditions: for concentration of IL-1α: controls 1187.0 ± 278.64
[11] = tested on: human umbilical vein VECs (HUVECs)
[12] = tested on: endothelium of atherosclerotic plaque; conditions: apoE(-/-) mice, injection
[13] = 50 and 100 mg/kg/day, vs MD group

Compound: O=C(O[C@@H]1Cc2c(O)cc(O)cc2O[C@@H]1c1cc(O)c(O)c(O)c1)c1cc(O)c(O)c(O)c1 [EGCG]
- NO production ([1]; cotreated with LPS): Inhibition
- activation of nuclear factor-kappaB ([1]; electrophoretic mobility shift assay): blocked
- TNF-α-induced nuclear factor-κB (NF-κB) activity [2]: inhibition
- TNF-α-induced downregulation of ABCA1 and decrease in cholesterol efflux to apoA1 ([2]; pretreatment): attenuated
- myeloperoxidase activity [3]: reduced
- myocardial damage [3]: reduced
- plasma IL-6 levels [3]: decreased
- plasma creatine phosphokinase levels [3]: decreased
- disease activity index (DAI) [4, 13]: decreased
- spleen index (SI) [4, 13]: decreased
- HIF-1α protein expression in the colon ([4]; mouse, in vivo): decreasing
- STAT3 protein expression in the colon ([4]; mouse, in vivo): decreasing
- plasma levels of IL-10 ([4]; mouse, in vivo): increasing
- plasma levels of TGF-β1 ([4]; mouse, in vivo): increasing
- release of IL-6 ([4]; plasma): reduce
- release of IL-17 ([4]; plasma): reduce

Compound: C[S+]([O-])CCCCN=C=S (stereo not drawn) [sulforaphane, 1-isothiocyanato-4-(methylsulfinyl)-butane]
- HO-1 expression ([5]; LPS-stimulated): significantly augmented
- LPS-stimulated mRNA expression, protein expression and production of TNF-alpha, IL-1beta, COX-2 and iNOS ([5]; pretreatment): potently inhibited
- anti-inflammatory effect [6]: attenuated
- expression of NO and cytokines [7]: able to prevent
- inducible nitric oxide synthase (iNOS) activity ([8]; 50 mg/kg): significantly inhibited
- nuclear factor-κB protein expression ([8]; 50 mg/kg): significantly decreased
- prostaglandin E2 (PGE2) production ([8]; 50 mg/kg): significantly inhibited
- serum levels of interleukin-6 (IL-6) ([8]; 50 mg/kg, ELISA): significantly decreased
- serum levels of tumor necrosis factor-α (TNF-α) ([8]; 50 mg/kg, ELISA): significantly decreased
- lactate dehydrogenase (LDH) activity ([8]; 50 mg/kg, LPS 5 mg/kg): significantly decreased
- wet-to-dry ratio of the lungs ([8]; 50 mg/kg, LPS 5 mg/kg): significantly decreased
- Nrf2/antioxidant response element (ARE) pathway ([8]; pre-treatment): activated
- cyclooxygenase-2 (COX-2) protein expression ([8]; western blot): significantly inhibited
- matrix metalloproteinase-9 (MMP-9) protein expression ([8]; western blot): significantly inhibited

Compound: CC1=CC(=O)C(C(C)C)=CC1=O [thymoquinone]
- lipopolysaccharide-induced inflammatory reactions [9]: suppressed effectively
- concentration of nitric oxide ([9]; marker of inflammation): reduced significantly
- concentration of IL-1α ([10]; 0.75 mg/kg dose): 310.8 ± 70.93 pg/mL
- IL-10 levels ([10]; 0.75 mg/kg, controls 5505.2 ± 333.96): 2885.0 ± 553.98 pg/mL
- concentration of IL-1α ([10]; 1 mg/kg group): 428.3 ± 71.32 pg/mL
- levels of IL-2 ([10]; P=0.0851): relatively lower levels
- levels of TNF-α ([10]; P=0.1817): relatively lower levels
- reduction of mortality ([10]; mice, sepsis): 80-90%
- renal and hepatic biomarker profiles ([10]; mice, sepsis): improved

Compound: trans-3,5-dimethoxy-4-hydroxystilbene [pterostilbene]
- oxLDL-induced cell shrinkage, chromatin condensation, nuclear fragmentation, and cell apoptosis ([11]; HUVECs, oxLDL 200 µg/ml): protected against such injuries
- expression of lectin-like oxLDL receptor-1 (LOX-1) ([11]; in vitro and in vivo): inhibited
- number of TUNEL-positive cells in the endothelium of atherosclerotic plaque [12]: strongly decreased
